According to patent US4656190A, “Indene derivatives and their use as PAF-antagonists” (Merck & Co., Inc., priority 1983, dated 1987):
Where two headings read alike, the source gives them in different places.

What was measured:
[1] = molecular target: T1, PAF specific receptor binding site on rabbit platelet plasma membranes (Oryctolagus cuniculus, UniProt G1TEI7); experiment: Inhibition of 3H-PAF binding to rabbit platelet plasma membranes; details: read-out: % Inhibition of PAF Binding
T1 construct: from tissue; host or cells: rabbit platelets (plasma membrane suspension)
T1 sequence (G1TEI7 1-342): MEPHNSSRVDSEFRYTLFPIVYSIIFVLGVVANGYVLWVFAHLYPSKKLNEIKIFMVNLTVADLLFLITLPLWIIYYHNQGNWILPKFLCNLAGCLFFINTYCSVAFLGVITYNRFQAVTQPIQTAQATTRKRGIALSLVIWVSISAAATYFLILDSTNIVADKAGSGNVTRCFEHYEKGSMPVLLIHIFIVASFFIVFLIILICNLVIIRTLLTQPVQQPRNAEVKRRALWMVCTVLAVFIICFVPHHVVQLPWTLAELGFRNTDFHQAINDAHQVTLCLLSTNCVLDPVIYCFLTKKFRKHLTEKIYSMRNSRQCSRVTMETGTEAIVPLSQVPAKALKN
Procedure: In vitro, they inhibit PAF-induced functions in both the cellular and tissue levels by disturbing the PAF binding to its specific receptor site. The ability of a compound of formula (I) to inhibit the PAF binding to its specific receptor binding site on rabbit platelet plasma membranes was measured by an assay recently developed by us.
The inhibition of H^3 -PAF binding to the rabbit platelet plasma membrane by a PAF-antagonist of Formula (I) was determined by a method employing isotropic labeling and filtration techniques. Generally, a series of Tris-buffered solutions of the selected antagonist at predetermined concentrations were prepared. Each of these solutions contains 1 pmole of ^3 H-PAF, a known amount of the test antagonist, and a sufficient amount of the pH 7.5 Tris-buffer solution (10 mM Tris, 0.25% bovine serum albumin, and 150 mM NaCl per ml water) to make the final volume of 1 ml. After adding into a set of test tubes each with 100 μg of the platelet plasma membrane suspension (S. B. Hwang, et al., Biochemistry, 22, 4756 (1983)) and one of the Tris-buffer solutions described above, the resulting mixture in each test tube was incubated at 0° C. for about one hour or until the reaction was complete. Two control samples, one of which (C1) contains all the ingredients described above except the antagonist and the other (C2) contains C1 plus a 1000-fold excess of unlabeled PAF, were also prepared and incubated simultaneously with the test samples. After the incubation was completed, the contents of each test tube were filtered under vacuo through a Whatman GF/C fiberglass filter and the residue washed rapidly several times with a total of 20 ml cold (0°-5° C.) Tris-buffer solution. Each washed residue was then suspended in 10 ml scintillation solution (Aquasol 2, New England Nuclear, Connecticut) and the radioactivity was counted in a Packard Tri-Carb 460CD Liquid Scintillation System. Defining the counts from a test sample as "Total binding with antagonist"; the counts from the control sample C1, as "Total binding C1 "; and the counts from the control sample C2 as "non-specific binding C2 ", the percent inhibition of each test antagonist can be determined by the following equation: [formula]

[2] = system: PAF-induced cutaneous vascular permeability; experiment: In vivo assay: inhibition of PAF-induced increase of cutaneous vasopermeability in guinea pigs after oral dosing; details: guinea pig
Procedure: The specific PAF-antagonistic activities are further established by in vivo assays following the protocol (modified procedure of Humphrey et al., Lab. Investigation, 46, 422 (1982)) described below:
Protocol for the Evaluation of the Oral Activity of
PAF Antagonists or the Inhibition of PAF-Induced
Increase of Vasopermeability by PAF-Antagonists
I. Animal species: 5 guinea pigs (400-500 g)
(4.) Ground and suspend a PAF antagonist of formula
(I) with intensive sonication in 3 ml of 0.5%
aqueous methylcellulose solution.
(5.) Administer orally to each of the animals T1,
T2, T3 and T4 an appropriate amount (in
terms of mg/kg of bodyweight) of the antagonist
solution from 4), except the control animal
(6.) Forty minutes after the oral administration,
(7.) After 20 minutes or when the anesthetics became
effective, inject intracardially to each animal
and inject intracutaneously, in duplicate 0.1
ml of a PAF solution in Tris-buffer or 0.1 ml
of the Tris-buffer itself (control) according
(9.) Wait for 30 minutes or until the blue color
(13.) In the meantime, extract a 100 μl sample of
(15.) Measure the absorbance of each supernatant from
Palo Alto, CA). Calculate the amount of Evans
blue in each skin sample in terms of the volume
(μl) of the exuded blood plasma according to
the following equation: […]
(16.) Draw a plasma exudation curve
(17.) Calculate the percent inhibition of PAF-induced
cutaneous vascular permeability from measuring
the area under the plasma exudation curve of
the control animal (AC) and that of an
animal treated orally with an antagonist
(AD), for example T1, according to the […]

[3] = Table 1, E (trans), dose 0.1 μM
[4] = Table 1, E (trans), dose 0.5 μM

| Compound | inhibition at 0.05 µM [1] [%] | inhibition at 0.1 µM [1] [%] | inhibition at 0.25 µM [1] [%] | inhibition at 0.5 µM [1] [%] | inhibition at 1 µM [1] [%] | inhibition at 2.5 µM [1] [%] | inhibition at 5 µM [1] [%] | % In Vivo Inhibition of PAF Receptor ([2]; 10 mg/kg) [%] | % In Vivo Inhibition of PAF Receptor ([2]; 20 mg/kg) [%] | % In Vivo Inhibition of PAF Receptor ([2]; 30 mg/kg) [%] | inhibition at 0.1 µM [1, 3] [%] | inhibition at 0.5 µM [1, 4] [%] | inhibition at 1 µM ([1]; Table 1, E (trans), dose 1 μM) [%] | inhibition at 5 µM ([1]; Table 1, E (trans), dose 5 μM) [%] | % In Vivo Inhibition of PAF Receptor ([2]; 50 mg/kg) [%] |
| --- | --- | --- | --- | --- | --- | --- | --- | --- | --- | --- | --- | --- | --- | --- | --- |
| COCCC1=C(C)/C(=C\c2ccc(S(N)(=O)=O)cc2)c2ccc(OC)cc21 [E CH2CH2OCH3 / SO2NH2 / OCH3, E 1-(4-aminosulfonylphenyl)methylene-5-methoxy-2-methyl-1H-3-indenyl-(2-methoxy)ethane] | 20 | 40 | 58 | 76 | 80 | 100 | 100 | 28 | 60 | 67 | – | – | – | – | – |
| COc1ccc2c(c1)C(CCSC)=C(C)/C2=C\c1ccc(S(N)(=O)=O)cc1 [E CH2CH2SCH3 / SO2NH2 / OCH3, E 1-(4-aminosulfonylphenyl)methylene-5-methoxy-2-methyl-1H-3-indenyl-(2-methylthio)ethane] | – | – | – | – | – | – | – | 30 | 46 | – | 34 | 78 | 100 | – | – |
| COc1ccc2c(c1)C(CCS(C)(=O)=O)=C(C)/C2=C\c1ccc(S(N)(=O)=O)cc1 [E CH2CH2SO2CH3 / SO2NH2 / OCH3, E 1-(4-aminosulfonylphenyl)methylene-5-methoxy-2-methyl-1H-3-indenyl-(2-methylsulfonyl)ethane] | – | – | – | – | – | – | – | 9 | 45 | – | 35 | 61 | 81 | 100 | – |
| COC(=O)CC1=C(C)/C(=C\c2ccc(S(N)(=O)=O)cc2)c2ccc(OC)cc21 [E CH2COOCH3 / SO2NH2 / OCH3, E methyl 1-(4-aminosulfonylphenyl)methylene-5-methoxy-2-methyl-1H-3-indenylacetate] | – | – | – | – | – | – | – | – | – | – | 35 | 70 | 84 | 100 | 0 |
